Data from PMC3968014, “Design and Synthesis of a Library of Lead-Like 2,4-Bisheterocyclic Substituted Thiophenes as Selective Dyrk/Clk Inhibitors” (PLoS ONE, 2014).
pIC50: −log10 of the molar value. Like-named read-outs stand apart in the source and are kept apart here.

Tests used:
[1] = biological target: T1, CSNK1G1 (CK1 gamma 1) (Homo sapiens, UniProt Q9HCP0); assay: Selectivity panel CSNK1G1; format: biochemical; conditions: 5 µM inhibitor
T1 construct: purchased Life Technologies (Invitrogen SelectScreen); Dyrk1A, Dyrk2 and CK2α in-house or gifts

[2] = biological target: T2, LYN A (Homo sapiens, UniProt P07948); assay: Selectivity panel LYN A; format: biochemical; conditions: 5 µM inhibitor
T2 construct: purchased Life Technologies (Invitrogen SelectScreen); Dyrk1A, Dyrk2 and CK2α in-house or gifts

[3] = biological target: T3, MAPKAPK2 (Homo sapiens, UniProt P49137); assay: Selectivity panel MAPKAPK2; format: biochemical; conditions: 5 µM inhibitor
T3 construct: purchased Life Technologies (Invitrogen SelectScreen); Dyrk1A, Dyrk2 and CK2α in-house or gifts

[4] = biological target: T4, PRKD2 (PKD2) (Homo sapiens, UniProt Q9BZL6); assay: Selectivity panel PRKD2; format: biochemical; conditions: 5 µM inhibitor
T4 construct: purchased Life Technologies (Invitrogen SelectScreen); Dyrk1A, Dyrk2 and CK2α in-house or gifts
T4 sequence (Q9BZL6 1-878): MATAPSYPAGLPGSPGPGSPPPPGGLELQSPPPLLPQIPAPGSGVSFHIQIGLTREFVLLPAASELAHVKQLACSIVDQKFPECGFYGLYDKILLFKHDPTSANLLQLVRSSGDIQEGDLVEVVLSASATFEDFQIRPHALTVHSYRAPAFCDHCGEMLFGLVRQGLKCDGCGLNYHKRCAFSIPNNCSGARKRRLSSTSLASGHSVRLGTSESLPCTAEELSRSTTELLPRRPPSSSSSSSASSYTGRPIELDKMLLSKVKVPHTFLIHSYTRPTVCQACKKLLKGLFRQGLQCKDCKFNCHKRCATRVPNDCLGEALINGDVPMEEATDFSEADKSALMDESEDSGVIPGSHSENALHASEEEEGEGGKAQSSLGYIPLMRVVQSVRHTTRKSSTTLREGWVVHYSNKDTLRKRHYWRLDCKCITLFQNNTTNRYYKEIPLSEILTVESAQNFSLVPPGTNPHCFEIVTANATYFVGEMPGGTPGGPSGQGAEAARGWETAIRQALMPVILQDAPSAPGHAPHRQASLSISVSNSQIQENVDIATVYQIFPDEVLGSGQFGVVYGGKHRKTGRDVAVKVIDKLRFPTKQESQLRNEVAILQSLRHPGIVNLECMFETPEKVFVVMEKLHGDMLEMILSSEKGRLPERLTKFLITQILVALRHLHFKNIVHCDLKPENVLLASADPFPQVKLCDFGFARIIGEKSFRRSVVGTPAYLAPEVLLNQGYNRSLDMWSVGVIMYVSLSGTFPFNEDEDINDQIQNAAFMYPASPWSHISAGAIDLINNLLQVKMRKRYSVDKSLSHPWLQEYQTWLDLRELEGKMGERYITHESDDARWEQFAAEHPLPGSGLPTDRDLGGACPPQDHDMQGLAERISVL

[5] = biological target: T5, TAOK2 (TAO1) (Homo sapiens, UniProt Q9UL54); assay: Selectivity panel TAOK2; format: biochemical; conditions: 5 µM inhibitor
T5 construct: purchased Life Technologies (Invitrogen SelectScreen); Dyrk1A, Dyrk2 and CK2α in-house or gifts

[6] = biological target: T6, HIPK1 (Homo sapiens, UniProt Q86Z02); assay: Selectivity panel HIPK1; format: biochemical; conditions: 5 µM inhibitor
T6 construct: purchased Life Technologies (Invitrogen SelectScreen); Dyrk1A, Dyrk2 and CK2α in-house or gifts
T6 sequence (Q86Z02 whole entry): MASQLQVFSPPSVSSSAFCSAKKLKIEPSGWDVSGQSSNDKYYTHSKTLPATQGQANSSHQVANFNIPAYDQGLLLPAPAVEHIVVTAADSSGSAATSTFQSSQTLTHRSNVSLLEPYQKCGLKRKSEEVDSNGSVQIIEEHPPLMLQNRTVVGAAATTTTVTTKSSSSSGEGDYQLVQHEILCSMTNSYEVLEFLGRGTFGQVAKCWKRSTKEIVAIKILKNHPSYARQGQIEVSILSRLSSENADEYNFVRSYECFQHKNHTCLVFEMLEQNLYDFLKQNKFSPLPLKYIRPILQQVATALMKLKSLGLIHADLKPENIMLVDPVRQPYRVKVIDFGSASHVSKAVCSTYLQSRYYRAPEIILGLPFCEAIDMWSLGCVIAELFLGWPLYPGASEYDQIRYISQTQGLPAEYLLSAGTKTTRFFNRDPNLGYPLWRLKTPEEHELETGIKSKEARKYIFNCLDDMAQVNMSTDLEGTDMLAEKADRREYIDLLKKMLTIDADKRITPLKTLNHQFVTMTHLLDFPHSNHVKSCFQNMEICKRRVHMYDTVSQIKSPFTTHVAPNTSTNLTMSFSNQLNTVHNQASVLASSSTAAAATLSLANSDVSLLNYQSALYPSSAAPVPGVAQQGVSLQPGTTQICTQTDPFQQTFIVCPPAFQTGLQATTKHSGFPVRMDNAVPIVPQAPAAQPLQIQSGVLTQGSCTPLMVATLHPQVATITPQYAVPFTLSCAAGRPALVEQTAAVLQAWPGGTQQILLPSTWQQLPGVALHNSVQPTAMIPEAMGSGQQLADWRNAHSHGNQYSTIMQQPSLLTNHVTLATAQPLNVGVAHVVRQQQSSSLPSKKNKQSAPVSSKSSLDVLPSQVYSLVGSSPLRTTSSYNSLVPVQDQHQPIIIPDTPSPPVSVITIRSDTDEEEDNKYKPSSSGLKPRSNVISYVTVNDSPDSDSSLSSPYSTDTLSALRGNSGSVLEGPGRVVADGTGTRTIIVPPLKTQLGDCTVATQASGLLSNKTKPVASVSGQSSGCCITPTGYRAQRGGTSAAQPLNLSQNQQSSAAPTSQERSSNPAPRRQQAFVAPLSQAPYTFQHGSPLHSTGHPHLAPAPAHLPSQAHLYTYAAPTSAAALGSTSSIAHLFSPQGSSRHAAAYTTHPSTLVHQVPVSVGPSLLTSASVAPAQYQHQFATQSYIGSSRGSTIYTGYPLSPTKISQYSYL

[7] = biological target: T7, JAK2 (Homo sapiens, UniProt O60674); assay: Selectivity panel JAK2; format: biochemical; conditions: 5 µM inhibitor
T7 construct: purchased Life Technologies (Invitrogen SelectScreen); Dyrk1A, Dyrk2 and CK2α in-house or gifts

[8] = biological target: T8, RPS6KA1 (RSK1) (Homo sapiens, UniProt Q15418); assay: Selectivity panel RPS6KA1; format: biochemical; conditions: 5 µM inhibitor
T8 construct: purchased Life Technologies (Invitrogen SelectScreen); Dyrk1A, Dyrk2 and CK2α in-house or gifts

[9] = biological target: T9, RIPK2 (Homo sapiens, UniProt O43353); assay: Selectivity panel RIPK2; format: biochemical; conditions: 5 µM inhibitor
T9 construct: purchased Life Technologies (Invitrogen SelectScreen); Dyrk1A, Dyrk2 and CK2α in-house or gifts

[10] = biological target: T10, MAP2K6 (MKK6) (Homo sapiens, UniProt P52564); assay: Selectivity panel MAP2K6; format: biochemical; conditions: 5 µM inhibitor
T10 construct: purchased Life Technologies (Invitrogen SelectScreen); Dyrk1A, Dyrk2 and CK2α in-house or gifts
T10 sequence (P52564 whole entry): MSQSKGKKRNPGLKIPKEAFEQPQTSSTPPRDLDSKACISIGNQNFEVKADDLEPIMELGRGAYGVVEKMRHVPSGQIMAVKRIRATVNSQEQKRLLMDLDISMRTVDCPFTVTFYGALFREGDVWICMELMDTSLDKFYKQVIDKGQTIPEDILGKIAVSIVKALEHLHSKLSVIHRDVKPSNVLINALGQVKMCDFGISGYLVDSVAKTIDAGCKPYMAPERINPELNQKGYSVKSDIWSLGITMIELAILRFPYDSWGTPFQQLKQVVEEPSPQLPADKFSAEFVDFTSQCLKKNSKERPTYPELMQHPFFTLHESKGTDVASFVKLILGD

[11] = biological target: T11, ACVR1 (ALK2) (Homo sapiens, UniProt Q04771); assay: Selectivity panel ACVR1; format: biochemical; conditions: 5 µM inhibitor
T11 construct: purchased Life Technologies (Invitrogen SelectScreen); Dyrk1A, Dyrk2 and CK2α in-house or gifts
T11 sequence (Q04771 21-509): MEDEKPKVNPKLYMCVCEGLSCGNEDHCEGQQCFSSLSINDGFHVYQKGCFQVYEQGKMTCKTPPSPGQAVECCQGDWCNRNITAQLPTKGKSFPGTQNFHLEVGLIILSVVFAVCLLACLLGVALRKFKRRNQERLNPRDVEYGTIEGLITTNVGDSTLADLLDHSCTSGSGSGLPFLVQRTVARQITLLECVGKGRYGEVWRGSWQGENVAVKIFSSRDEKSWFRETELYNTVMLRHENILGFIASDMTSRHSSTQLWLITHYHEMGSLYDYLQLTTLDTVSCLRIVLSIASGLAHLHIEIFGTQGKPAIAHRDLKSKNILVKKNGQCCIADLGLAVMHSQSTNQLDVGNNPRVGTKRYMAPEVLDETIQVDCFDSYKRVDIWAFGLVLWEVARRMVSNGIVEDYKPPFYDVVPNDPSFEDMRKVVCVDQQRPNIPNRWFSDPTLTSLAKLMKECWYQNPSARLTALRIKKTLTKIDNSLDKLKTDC

[12] = biological target: T12, MAP3K5 (ASK1) (Homo sapiens, UniProt Q99683); assay: Selectivity panel MAP3K5; format: biochemical; conditions: 5 µM inhibitor
T12 construct: purchased Life Technologies (Invitrogen SelectScreen); Dyrk1A, Dyrk2 and CK2α in-house or gifts
T12 sequence (Q99683 whole entry): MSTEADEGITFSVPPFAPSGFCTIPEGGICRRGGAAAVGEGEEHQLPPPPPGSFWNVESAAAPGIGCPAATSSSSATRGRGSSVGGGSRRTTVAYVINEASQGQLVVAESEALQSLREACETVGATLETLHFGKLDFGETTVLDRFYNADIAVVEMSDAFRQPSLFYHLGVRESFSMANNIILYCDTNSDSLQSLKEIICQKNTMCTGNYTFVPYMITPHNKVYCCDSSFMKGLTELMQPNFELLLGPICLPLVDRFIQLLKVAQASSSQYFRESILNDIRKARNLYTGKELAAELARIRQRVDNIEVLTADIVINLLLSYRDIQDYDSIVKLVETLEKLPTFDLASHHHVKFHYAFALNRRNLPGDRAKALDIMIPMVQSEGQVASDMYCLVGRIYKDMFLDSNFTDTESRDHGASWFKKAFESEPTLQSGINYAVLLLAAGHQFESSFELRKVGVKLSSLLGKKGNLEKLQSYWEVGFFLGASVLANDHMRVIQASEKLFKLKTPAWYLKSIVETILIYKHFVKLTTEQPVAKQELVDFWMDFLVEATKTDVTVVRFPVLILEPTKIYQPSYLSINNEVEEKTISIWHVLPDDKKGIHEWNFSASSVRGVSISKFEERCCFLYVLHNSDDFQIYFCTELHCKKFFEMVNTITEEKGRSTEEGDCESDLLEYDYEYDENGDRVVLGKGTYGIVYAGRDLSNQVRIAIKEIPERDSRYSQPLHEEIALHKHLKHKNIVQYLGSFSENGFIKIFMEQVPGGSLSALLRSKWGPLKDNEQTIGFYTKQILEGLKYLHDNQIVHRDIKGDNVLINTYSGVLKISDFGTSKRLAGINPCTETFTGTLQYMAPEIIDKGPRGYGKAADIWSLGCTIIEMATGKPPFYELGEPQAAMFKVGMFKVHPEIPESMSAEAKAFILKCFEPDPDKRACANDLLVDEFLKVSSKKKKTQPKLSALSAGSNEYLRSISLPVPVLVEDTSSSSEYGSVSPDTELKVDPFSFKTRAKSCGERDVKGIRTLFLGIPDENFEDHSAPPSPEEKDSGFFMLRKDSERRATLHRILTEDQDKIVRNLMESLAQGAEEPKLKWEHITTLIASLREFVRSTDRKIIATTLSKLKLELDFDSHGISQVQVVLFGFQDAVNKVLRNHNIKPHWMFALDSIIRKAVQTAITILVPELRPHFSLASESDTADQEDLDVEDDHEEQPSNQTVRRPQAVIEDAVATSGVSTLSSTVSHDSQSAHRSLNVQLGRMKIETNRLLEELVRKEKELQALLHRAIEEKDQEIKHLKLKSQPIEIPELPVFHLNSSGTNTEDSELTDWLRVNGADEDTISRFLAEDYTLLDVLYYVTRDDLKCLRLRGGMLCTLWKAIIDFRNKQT

[13] = biological target: T13, CLK2 (Homo sapiens, UniProt P49760); assay: Selectivity panel CLK2; format: biochemical; conditions: 5 µM inhibitor
T13 construct: purchased Life Technologies (Invitrogen SelectScreen); Dyrk1A, Dyrk2 and CK2α in-house or gifts

[14] = biological target: T14, TGFBR1 (ALK5) (Homo sapiens, UniProt P36897); assay: Selectivity panel TGFBR1; format: biochemical; conditions: 5 µM inhibitor
T14 construct: purchased Life Technologies (Invitrogen SelectScreen); Dyrk1A, Dyrk2 and CK2α in-house or gifts

[15] = biological target: T15, HIPK4 (Homo sapiens, UniProt Q8NE63); assay: Selectivity panel HIPK4; format: biochemical; conditions: 5 µM inhibitor
T15 construct: purchased Life Technologies (Invitrogen SelectScreen); Dyrk1A, Dyrk2 and CK2α in-house or gifts

[16] = biological target: T16, CK2α (Homo sapiens, UniProt P68400); assay: CK2α kinase assay (counter screen); format: biochemical; conditions: for inhibition at 5 µM: read-out: percentage of inhibition CK2α
T16 construct: purchased Life Technologies (Invitrogen SelectScreen); Dyrk1A, Dyrk2 and CK2α in-house or gifts
T16 sequence (P68400 whole entry): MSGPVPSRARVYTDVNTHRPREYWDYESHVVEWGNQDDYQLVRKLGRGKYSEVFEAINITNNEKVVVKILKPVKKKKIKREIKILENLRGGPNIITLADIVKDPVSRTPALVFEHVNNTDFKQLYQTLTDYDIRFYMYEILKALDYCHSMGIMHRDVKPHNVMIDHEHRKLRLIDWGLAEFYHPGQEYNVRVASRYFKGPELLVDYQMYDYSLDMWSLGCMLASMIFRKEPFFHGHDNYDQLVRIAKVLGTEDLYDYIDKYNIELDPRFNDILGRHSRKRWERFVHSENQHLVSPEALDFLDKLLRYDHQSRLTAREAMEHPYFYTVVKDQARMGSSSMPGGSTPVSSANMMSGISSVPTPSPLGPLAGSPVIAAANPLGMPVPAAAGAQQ
Protocol: Dyrk1A, Dyrk1B, Dyrk2, CK2α and Clk1 kinase reactions were performed in a reaction buffer containing 50 mM Tris/HCl, pH 7.4, 0.1 mM EGTA, 0.5 mM DTT, 10 mM MgCl2, 100 µM ATP and 0.33 µM [γ-^32ATP] as well as the appropriate substrate peptides, which were 100 µM Woodtide for the Dyrk isoforms ([…]-NH2), 60 µM CK2 substrate peptide ([…]-NH2, from Millipore) for CK2α or RS repeat peptide ([…]) for Clk1. The CK2α protein was a kind gift of M. Montenarh (Homburg). The kinase reactions were performed at 30°C for 15 min and terminated by spotting 5 µL of the reaction mixture onto a P81 phosphocellulose membrane (Whatman). The membrane was washed four times with 0.3% phosphoric acid and one time with acetone and dried. The dry membrane was exposed in a cassette to a Phosphor Screen Imaging Plate (FujiFilm) and the signals detected by scanning of the imaging plate in a Fuji FLA-3000 PhosphoImager. The spots were quantified using AIDA software (Raytest, Version 3.52) to determine the activities of the kinases in the assay reactions. […] IC50 values were calculated by fitting the data with Origin Pro 8.6 (OriginLabs). The calculated IC50 values are representative of at least two independent determinations.

[17] = biological target: T17, RPS6KB1 (p70S6K) (Homo sapiens, UniProt P23443); assay: Selectivity panel RPS6KB1; format: biochemical; conditions: 5 µM inhibitor
T17 construct: purchased Life Technologies (Invitrogen SelectScreen); Dyrk1A, Dyrk2 and CK2α in-house or gifts

[18] = biological target: Clk1 (Homo sapiens, UniProt P49759); assay: Clk1 kinase assay (RS repeat peptide); format: biochemical; conditions: for inhibition at 5 µM: read-out: % inhibition Clk1; for pIC50: 100 µM ATP
Sequence of Clk1 (P49759 whole entry): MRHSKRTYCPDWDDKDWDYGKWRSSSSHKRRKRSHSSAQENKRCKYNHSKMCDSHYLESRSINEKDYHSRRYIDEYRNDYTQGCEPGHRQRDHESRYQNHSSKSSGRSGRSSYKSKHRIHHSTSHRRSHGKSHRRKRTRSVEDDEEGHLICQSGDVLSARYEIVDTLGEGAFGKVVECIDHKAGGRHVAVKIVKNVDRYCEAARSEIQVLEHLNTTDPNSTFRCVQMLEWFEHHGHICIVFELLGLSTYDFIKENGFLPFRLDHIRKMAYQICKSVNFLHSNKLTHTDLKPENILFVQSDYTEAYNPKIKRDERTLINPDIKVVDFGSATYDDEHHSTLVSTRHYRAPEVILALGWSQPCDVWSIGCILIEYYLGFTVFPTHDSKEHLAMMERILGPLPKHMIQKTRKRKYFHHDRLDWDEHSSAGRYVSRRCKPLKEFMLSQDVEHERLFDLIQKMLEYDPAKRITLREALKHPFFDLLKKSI

[19] = biological target: T18, ZAP70 (Homo sapiens, UniProt P43403); assay: Selectivity panel ZAP70; format: biochemical; conditions: 5 µM inhibitor
T18 construct: purchased Life Technologies (Invitrogen SelectScreen); Dyrk1A, Dyrk2 and CK2α in-house or gifts

[20] = biological target: T19, EPHA5 (Homo sapiens, UniProt P54756); assay: Selectivity panel EPHA5; format: biochemical; conditions: 5 µM inhibitor
T19 construct: purchased Life Technologies (Invitrogen SelectScreen); Dyrk1A, Dyrk2 and CK2α in-house or gifts

[21] = biological target: T20, PLK2/SNK (Homo sapiens, UniProt Q9NYY3); assay: Selectivity panel PLK2/SNK; format: biochemical; conditions: 5 µM inhibitor
T20 construct: purchased Life Technologies (Invitrogen SelectScreen); Dyrk1A, Dyrk2 and CK2α in-house or gifts

[22] = biological target: T21, BRSK1 (SAD1) (Homo sapiens, UniProt Q8TDC3); assay: Selectivity panel BRSK1; format: biochemical; conditions: 5 µM inhibitor
T21 construct: purchased Life Technologies (Invitrogen SelectScreen); Dyrk1A, Dyrk2 and CK2α in-house or gifts
T21 sequence (Q8TDC3 whole entry): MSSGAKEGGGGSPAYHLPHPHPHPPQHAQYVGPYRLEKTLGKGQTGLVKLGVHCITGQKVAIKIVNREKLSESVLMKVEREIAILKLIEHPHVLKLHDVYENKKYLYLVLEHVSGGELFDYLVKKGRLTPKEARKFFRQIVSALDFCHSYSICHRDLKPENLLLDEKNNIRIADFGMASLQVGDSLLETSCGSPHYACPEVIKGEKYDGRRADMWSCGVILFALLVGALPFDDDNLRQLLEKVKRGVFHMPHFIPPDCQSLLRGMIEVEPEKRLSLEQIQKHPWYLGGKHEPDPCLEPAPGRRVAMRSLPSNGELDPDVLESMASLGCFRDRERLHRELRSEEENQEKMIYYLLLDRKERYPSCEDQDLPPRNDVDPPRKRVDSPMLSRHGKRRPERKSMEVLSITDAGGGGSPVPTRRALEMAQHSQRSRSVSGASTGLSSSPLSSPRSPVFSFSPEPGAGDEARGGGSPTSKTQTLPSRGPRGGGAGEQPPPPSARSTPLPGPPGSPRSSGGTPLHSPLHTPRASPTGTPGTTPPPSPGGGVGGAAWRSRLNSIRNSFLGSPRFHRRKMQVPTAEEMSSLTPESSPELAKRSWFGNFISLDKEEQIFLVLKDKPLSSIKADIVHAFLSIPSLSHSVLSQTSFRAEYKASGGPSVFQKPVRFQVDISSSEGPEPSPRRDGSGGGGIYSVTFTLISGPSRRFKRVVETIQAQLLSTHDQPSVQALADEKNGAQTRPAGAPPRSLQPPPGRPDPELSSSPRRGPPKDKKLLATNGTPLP

| inhibition at 5 µM [4] [%] | melting point [°C] | inhibition at 5 µM [6] [%] | inhibition at 5 µM [16] [%] | pIC50 [18] | inhibition at 5 µM ([18]; at 5 µM) [%] | SMILES | inhibition at 5 µM [1] [%] | inhibition at 5 µM [2] [%] | inhibition at 5 µM [3] [%] | inhibition at 5 µM [5] [%] | inhibition at 5 µM [7] [%] | inhibition at 5 µM [8] [%] | inhibition at 5 µM [9] [%] | inhibition at 5 µM [10] [%] | inhibition at 5 µM [11] [%] | inhibition at 5 µM [12] [%] | inhibition at 5 µM [13] [%] | inhibition at 5 µM [14] [%] | inhibition at 5 µM [15] [%] | inhibition at 5 µM [17] [%] | other results |
| --- | --- | --- | --- | --- | --- | --- | --- | --- | --- | --- | --- | --- | --- | --- | --- | --- | --- | --- | --- | --- | --- |
| 0 | 86 to 87 | 7 | 0 | 6.38 | 88 | c1cncc(-c2csc(-c3cnco3)c2)c1 [Compound 33, 3-[5-(1,3-oxazol-5-yl)thiophen-3-yl]pyridine] | – | – | – | – | – | – | – | – | – | – | – | – | – | – | – |
| 0 | 173 to 174 | 9 | 0 | 6.21 | 86 | c1cncc(-c2csc(-c3cncnc3)c2)c1 [Compound 41, 5-[4-(pyridin-3-yl)thiophen-2-yl]pyrimidine] | – | – | – | – | – | – | – | – | – | – | – | – | – | – | – |

Further lines, the compound ahead of its results:

| SMILES | inhibition at 5 µM [4] [%] | melting point [°C] | inhibition at 5 µM [6] [%] | inhibition at 5 µM [16] [%] | pIC50 [18] | inhibition at 5 µM ([18]; at 5 µM) [%] | inhibition at 5 µM [1] [%] | inhibition at 5 µM [2] [%] | inhibition at 5 µM [3] [%] | inhibition at 5 µM [5] [%] | inhibition at 5 µM [7] [%] | inhibition at 5 µM [8] [%] | inhibition at 5 µM [9] [%] | inhibition at 5 µM [10] [%] | inhibition at 5 µM [11] [%] | inhibition at 5 µM [12] [%] | inhibition at 5 µM [13] [%] | inhibition at 5 µM [14] [%] | inhibition at 5 µM [15] [%] | inhibition at 5 µM [17] [%] | other results |
| --- | --- | --- | --- | --- | --- | --- | --- | --- | --- | --- | --- | --- | --- | --- | --- | --- | --- | --- | --- | --- | --- |
| c1cncc(-c2cc(-c3cncs3)cs2)c1 [Compound 29, 3-[4-(1,3-thiazol-5-yl)thiophen-2-yl]pyridine] | 0 | 114 to 115 | 4 | 0 | – | – | -5 | 16 | 2 | -6 | -2 | 2 | 53 | 5 | 51 | 4 | 72 | 24 | 7 | -2 | inhibition at 5 µM [18]: 96%; inhibition at 5 µM [19]: 4%; inhibition at 5 µM [20]: -9%; inhibition at 5 µM [21]: -3%; inhibition at 5 µM [22]: 11% |
| Cn1cc(-c2csc(-c3cccnc3)c2)cn1 [Compound 30, 3-[4-(1-methyl-1H-pyrazol-4-yl)thiophen-2-yl]pyridine] | -8 | 119 to 120 | 8 | 9.5 | 6.80 | 92 | – | – | – | – | – | – | – | – | – | – | – | – | – | – | percentage of inhibition CK2α ([16]; at 5 µM): 10% |
| c1cncc(-c2csc(-c3cncs3)c2)c1 [Compound 48, 3-[5-(1,3-thiazol-5-yl)thiophen-3-yl]pyridine] | 0 | 69 to 70 | 9 | 0 | 6.96 | 94 | -3 | 13 | 2 | -6 | -4 | 4 | 46 | 7 | 51 | 6 | 78 | 22 | 7 | -4 | inhibition at 5 µM [19]: -1%; inhibition at 5 µM [20]: -6%; inhibition at 5 µM [21]: 1%; inhibition at 5 µM [22]: -4% |
